This note sets out measurements from US12083159B2, “Antibacterial compositions, methods of making and use thereof” (MOREHOUSE SCHOOL OF MEDICINE, priority 2011, dated 2024).

Where no end group is shown, it is not given here.

The test system of one data set is Jurkat. Type of data set: cell-based. As to conditions: Jurkat cultures, 12 days. The protocol:
Jurkat cultures seeded at low density were grown in the presence of the SMRwt or the SMRmut peptide. A small but consistent aliquot was taken from each culture daily over a period of 12 days. The cells in the aliquot were counted and the cells/ml in the culture calculated to determine culture growth. The data are shown with time on the x-axis and cell number on the y-axis.
Neither peptide cause cell death (data not shown). Using immunoprecipitation with the SMRwt peptide as bait to screen for cellular factors interacting with the SMR domain, a cellular protein Mortalin was co-immunoprecipitated with the SMRwt peptide (FIG. 3). Mortalin, also known as Glucose-regulated protein 75 (GRP75) and Peptide-binding protein 74, is a 679 amino acid long, uninducible member of the heat shock protein 70 family. It has a high degree of identity with other members of the Hsp70 family, including Escherichia coli DnaK.

Another data set deals with Escherichia coli 042. The data set can be described thus: Biofilm formation, crystal violet assay (microtiter plate). Type of data set: cell-based. As to conditions: FIG. 13. The protocol: (§1) Biofilm Formation and Measurement Procedures by Crystal Violet Assay: (1) incubate bacteria in agar plate; (2) single colony was transferred to fresh medium and incubated for overnight; (3) cultures were diluted 1:50 into fresh medium and (4) was dispensed into 96 well plate and incubated for overnight; (5) detection of bacteria growth ability, the OD at 600 nm was determined by the SpectraMax M5 Microplate Reader (6) washed by 1× PBS; (7) stained with crystal violet; (8) detection of biofilm, the OD at 570 nm was determined by the SpectraMax M5 Microplate Reader.
(§2) SMR(mut)-CPP (tat) peptide was used as a negative control.
(§3) Bacterial strains evaluated for biofilm formation included (1) the Gram-negative Vibrio cholerae C7258 strain (A. J. Silva et al., J. Bact., 190 (22):7335-7345 (November 2008); J. C. Ayala et al., Genomics data 5, pp. 147-150, (2015)); (2) the Gram-negative Escherichia coli 042 strain (Taxonomy ID: 216592, R. R. Chaudhuri et al, PLOS One, 5(1):e8801 (Jan. 20, 2010), and (3) the Gram-positive Staphylococcus aureus SCO1 strain (ATCC 12228, S. Sarkar et al., PLos One, 10(2):e0117613 (2015). The Vibrio cholerae, Escherichia coli and Staphylococcus aureus strains and plasmids are listed in the references cited in Table 2.
(§4) The Vibrio cholerae, Escherichia coli and Staphylococcus aureus strains were treated with SMRwt-CPP and SMRmut-CPP peptides and screened for inhibition of their biofilm-forming capacity using microtiter plate (MtP) methods (FIGS. 12-14 (crystal violet assays)) and confocal microscopy (FIGS. 15-16 (intensity count on confocal images).

Data set [1] concerns Staphylococcus aureus SCO1. Described as above. Type of data set: cell-based. As to conditions: FIG. 14. As to the method:
as §1, §2, §3, §4

The subject of a further data set is Vibrio cholerae C7258. Described as above. Type of data set: cell-based. As to conditions: FIG. 12. The protocol:
as §1, §2, §3, §4

Data set [2] has as its system Staphylococcus aureus SCO1. As to the kind of experiment: Biofilm formation, SYTO9 confocal microscopy, ImageJ. As to conditions: 24 h static, 18, 36, 72 nM, FIG. 15. Format: cell-based. As to the method:
(§5) Strain SCO1 was grown in LB medium at 37° C. to stationary phase. The cultures were diluted 100 fords in fresh medium and biofilm allowed to develop under static conditions for 24 h in Mat Tek glass bottom culture plates. Biofilm formation was stained with SYTO9 and observed by Leico confocal microscopy and three-dimensional (3D) views of S. aureus and measured using the ImageJ. (A) Confocal images, (B) 3D images, and (C) bar graphs showing the inhibit effect of biofilm formation. Error bars represent the mean±SD of two independent experiments. Asterisks (*) indicate significant differences (p≤0.05) relative to negative control *p<0.01 (18 nM), **p<0.001 (36 nM, 72 nM) in SMR-CPP peptide treatment. Each value represents the mean of three independent experiments. Error bars denote the standard deviation (STDEV).
as §4

The next data set deals with V. cholerae C7258. The data set is described as above. As to conditions: 24 h static, 18, 36, 72 nM, FIG. 16. Type of data set: cell-based, Vibrio cholerae. As to the method: as §5, with “V. cholerae C7258” for “SCO1”, “30°” for “37°”, “V. cholerae” for “S. aureus”, “vs 18” for “(18 nM), **p<0.001 (36”, “nM, 36 nM and” for “nM,”, “nM SMRwt-CPP” for “nM) in SMR-CPP”
as §4

“AGFPVAAAGFPVDYKDDDDK [SMRmut, reference compound]”: the “effect on eukaryotic cell growth” value in the data set with Jurkat is “no effect on eukaryotic cell growth”.
Consider “AGFPVAAAGFPVGRKKRRQRRRPPQ [SMRmut-CPP, reference compound]”, for which the “inhibition of biofilm formation” value (in the data set on Escherichia coli 042; in data set [1]; in the data set with Vibrio cholerae C7258) was “no significant effect” throughout.
As to VGFPVAAVGFPVDYKDDDDK [SMRwt], the “effect on eukaryotic cell growth” value in the data set with Jurkat is reported as “no effect on eukaryotic cell growth”.
Take VGFPVAAVGFPVGRKKRRQRRRPPQ [SMRwt-CPP]: the “inhibition of biofilm formation” value (in the data set with Escherichia coli 042; in data set [1]; in the data set on Vibrio cholerae C7258; in data set [2]; with V. cholerae C7258) was “dose-response inhibition of biofilm formation” in each case.
